We go through 33 molecules from ChEMBL document CHEMBL1138740, “Design of 2,5-dimethyl-3-(6-dimethyl-4-methylpyridin-3-yl)-7-dipropylaminopyrazolo[1,5-a]pyrimidine (NBI 30775/R121919) and structure--activity relationships of a series of potent and orally active corticotropin-releasing factor receptor antagonists” (J Med Chem, 2004).

Data set [1] addresses T1, Corticotropin-releasing factor receptor 1 (Homo sapiens, UniProt P34998).
T1 sequence (P34998 whole entry): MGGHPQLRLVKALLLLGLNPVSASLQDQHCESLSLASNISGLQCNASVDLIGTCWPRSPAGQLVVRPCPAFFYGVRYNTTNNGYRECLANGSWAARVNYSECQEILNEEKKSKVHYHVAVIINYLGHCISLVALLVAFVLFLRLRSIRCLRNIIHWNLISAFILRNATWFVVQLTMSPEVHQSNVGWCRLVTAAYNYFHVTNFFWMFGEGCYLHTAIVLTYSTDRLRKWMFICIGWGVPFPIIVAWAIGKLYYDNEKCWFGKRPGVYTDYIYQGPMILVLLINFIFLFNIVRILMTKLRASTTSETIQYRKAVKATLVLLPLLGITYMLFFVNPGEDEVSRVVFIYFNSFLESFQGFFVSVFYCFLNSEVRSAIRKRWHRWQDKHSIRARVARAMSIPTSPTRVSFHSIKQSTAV
Description: Inhibition of CRF-stimulated cAMP production in CHO cells expressing human CRF1 receptor. (cAMP levels reflect the balance of adenylyl cyclase and phosphodiesterase activity.)

In data set [2] the target is T1, Corticotropin-releasing factor receptor 1. Description: Inhibition of [125I]o-CRF binding to CHO cells expressing human CRF1 receptor. It is filed as cell-based.
A short description of data set [3]: Plasma clearance determined in dawley rats. Type of data set: ADME, organism-based. Particulars: Sprague-Dawley, rat.
Data set [4] in a line: Plasma half-life determined in dawley rats. Type of data set: ADME. To be noted: Sprague-Dawley, rat.
The nature of data set [5]: Plasma volume distribution determined in dawley rats. Type of data set: ADME, organism-based. To be noted: Sprague-Dawley, rat.

Each structure is given as a SMILES string. pIC50, pKi: −log10 of the molar value.

As a reminder, the pIC50 is −log10 of the IC50, conventionally taken in molar units. Lower therefore signals a high IC50. The pKi is the negative decadic logarithm of the Ki, by convention in mol/L. `CCCN(CCC)c1cc(C)nc2c(-c3ccc(N(C)C)nc3)c(C)nn12`: the negative-log IC50 (pIC50) in data set [1] is 6.96. In addition, the negative logarithm of the Ki (pKi) in data set [2] was 8.38.

Consider `CCN(Cc1ccc(Cl)cc1)c1cc(C)nc2c(-c3cnc(N(C)C)cc3C)c(C)nn12`, for which, in data set [2], the pKi is 8.89.

Turning to `CCN(Cc1ccc(C)cc1)c1cc(C)nc2c(-c3cnc(N(C)C)cc3C)c(C)nn12`, in data set [2], the pKi was 8.64.

For `Cc1cc(NC(C)CCC(C)C)n2nc(C)c(-c3cnc(N(C)C)cc3C)c2n1` (stereo not given), the pKi in data set [2] was 7.89.

In data set [2], `CCCCN(CCCC)c1cc(C)nc2c(-c3cnc(N(C)C)cc3C)c(C)nn12` had a pKi of 8.38.

As for `CCCN(CCC)c1c(F)c(C)nc2c(-c3cnc(N(C)C)cc3C)c(C)nn12`, the pIC50 in data set [1] is 7.30. In data set [2], this molecule showed a pKi of 8.25.

As to `CCN(Cc1ccccc1F)c1cc(C)nc2c(-c3cnc(N(C)C)cc3C)c(C)nn12`, the pKi in data set [2] was 8.47.

For `CCCN(CCC)c1cc(C)nc2c(-c3c(C)cc(N(C)C)nc3C)c(C)nn12`, the pIC50 in data set [1] was 7.40. The same molecule gave a negative-log Ki (pKi) in data set [2] of 8.28.

In turn, `CCCN(CC1CC1)c1cc(C)nc2c(-c3cnc(N(C)C)cc3C)c(C)nn12` had a pKi in data set [2] of 8.59.

Take `CCN(Cc1ccc(Cl)c(Cl)c1)c1cc(C)nc2c(-c3cnc(N(C)C)cc3C)c(C)nn12`: the pKi in data set [2] was 8.60.

`CCC(COC)Nc1cc(C)nc2c(-c3cnc(N(C)C)cc3C)c(C)nn12` (stereo not given): the pKi in data set [2] was 6.59.

Turning to `Cc1cc(NC(C)C(C)C)n2nc(C)c(-c3cnc(N(C)C)cc3C)c2n1` (stereo not given), the pKi in data set [2] was 7.77.

On to `CCCCN(Cc1ccccc1)c1cc(C)nc2c(-c3cnc(N(C)C)cc3C)c(C)nn12`, for which, in data set [2], the pKi is 8.54.

As to `CCCN(CCOC)c1cc(C)nc2c(-c3ccc(OC)cc3OC)c(C)nn12`, in data set [1], the pIC50 was 7.12.

With `Cc1cc(N(Cc2ccccc2)C(C)C)n2nc(C)c(-c3cnc(N(C)C)cc3C)c2n1`, the pKi in data set [2] is 7.96.

`CCCN(CCC)c1c(Br)c(C)nc2c(-c3cnc(N(C)C)cc3C)c(C)nn12` gave a pKi in data set [2] of 6.62.

The molecule `CCCN(CCC)c1cc(C)nc2c(-c3ccc(C)nc3)c(C)nn12` had a pKi in data set [2] of 7.68.

The molecule `CCCN(CCC)c1cc(C)nc2c(-c3cnc(C)cc3C)c(C)nn12` showed a pKi in data set [2] of 8.14. Compared with the last molecule, the pKi is 0.46 log units higher.

In turn, `CCCCN(CC)c1cc(C)nc2c(-c3cnc(N(C)C)cc3C)c(C)nn12` showed a pKi in data set [2] of 8.59.

In data set [1], `CCCN(CCC)c1cc(C)nc2c(-c3ncc(N(C)C)cc3C)c(C)nn12` had a pIC50 of 6.80.

On to `CCN(Cc1ccccc1C)c1cc(C)nc2c(-c3cnc(N(C)C)cc3C)c(C)nn12`, for which the pKi in data set [2] is 8.62.

Regarding `CCC(CC)Nc1cc(C)nc2c(-c3cnc(N(C)C)cc3C)c(C)nn12`, the pKi in data set [2] was 8.03.

`CCCN(CC1CC1)c1cc(C)nc2c(-c3ccc(Cl)cc3Cl)c(C)nn12` showed a pIC50 in data set [1] of 7.54. This molecule also had a pKi in data set [2] of 8.80.

Turning to `CCCN(Cc1ccccc1)c1cc(C)nc2c(-c3cnc(N(C)C)cc3C)c(C)nn12`, the pKi in data set [2] was 8.28.

As for `CCCN(Cc1cccc(OC)c1)c1cc(C)nc2c(-c3cnc(N(C)C)cc3C)c(C)nn12`, the pKi in data set [2] is 7.62.

`CCCN(CCC)c1cc(C)nc2c(-c3ccc(N(C)C)nc3C)c(C)nn12` gave a pIC50 in data set [1] of 6.72. The pKi in data set [2] is 8.66.

The molecule `COCC(Cc1ccccc1)Nc1cc(C)nc2c(-c3cnc(N(C)C)cc3C)c(C)nn12` (stereo not given) gave a pKi in data set [2] of 8.19.

As to `CCCN(Cc1ccc2ccccc2c1)c1cc(C)nc2c(-c3cnc(N(C)C)cc3C)c(C)nn12`, the pKi in data set [2] was 7.82.

In the case of `CCCN(c1ccccc1)c1cc(C)nc2c(-c3cnc(N(C)C)cc3C)c(C)nn12`, the pKi in data set [2] is 8.06. This pKi is 0.24 log units higher than that of the molecule before.

Usually clearance stands for the rate of elimination divided by the concentration. Low readings indicate a low capacity for elimination, high ones a high capacity for elimination. A word on the half-life: it is the time in which the quantity being followed falls by half. Usually Vd stands for a proportionality between amount in the body and measured concentration, not a real space. Lower therefore signals little distribution into tissue. As for `CCCN(CCC)c1cc(C)nc2c(-c3cnc(N(C)C)cc3C)c(C)nn12`, in data set [3], the clearance stood at 112 mL/min/kg. Moreover, in data set [4], the half-life was 1.7 h. The Vd in data set [5] amounted to 16.7 L/kg.

With `CCCN(CCC)c1c(Cl)c(C)nc2c(-c3cnc(N(C)C)cc3C)c(C)nn12`, in data set [2], the pKi is 7.41.

For the molecule `CCCC(CCC)Nc1cc(C)nc2c(-c3cnc(N(C)C)cc3C)c(C)nn12`, in data set [2], the pKi was 8.32. Against the preceding molecule, the pKi is 0.91 log units higher.

For `CCN(Cc1cccc(C)c1)c1cc(C)nc2c(-c3cnc(N(C)C)cc3C)c(C)nn12`, the pKi in data set [2] is 8.62. Against the preceding molecule, the pKi is 0.30 log units higher.
